# Results reported in patent US9511074B2, “Methods of treating disorders associated with protein polymerization” (UNIVERSITY OF PITTSBURGH—OF THE COMMONWEALTH SYSTEM OF …, priority 2009, dated 2016).
# How the values were obtained:
# [1] = test system: smooth muscle actin, collagen IA and TGFβ mRNA; experiment: Stellate cell activation markers in liver of PiZ mice by Q-PCR; format: in vivo, mouse
# Description: Quantitative PCR (Q-PCR) Levels of mRNA from smooth muscle actin, collagen IA and TGFβ in liver of PiZ mice were determined by Q-PCR using primers from ABI and previous described conditions (19).
# [2] = test system: ATZ in Atg5 deficient cell line; experiment: ATZ levels in autophagy-deficient (Atg5-/-) MEF cell line; format: cell-based, murine; conditions: Atg5-deficient cells
# Description: Cell Lines The human epidermal HeLa cell line with doxycycline-regulated expression of ATZ (HTO/Z) has been described previously (1). HTO/M and HTO/Saar are HeLa cell lines with doxycycline-regulated expression of wild type AT and the AT Saar variant, respectively (1). A murine embryonic fibroblast cell line (MEF) with targeted disruption of Atg5 (2) was engineered for stable expression of ATZ using the previously described pRc/RSV-ATZ expression plasmid (3). A wild type MEF cell line was also engineered for stable expression of ATZ in the same way to serve as control. For experiments with CBZ, the inducible cell lines were cultured in the absence of doxycycline for at least 4 weeks for maximal expression of AT. The cells were then subcultured into separate monolayers in fresh complete growth medium and incubated for 48 hours in the absence or presence of CBZ or rapamycin (RAP). CBZ or RAP were added to the growth medium. The duration of incubation with CBZ was determined to be optimal at 48 hours based on experiments in which the duration was varied from 12 to 72 hours. Doses of CBZ were based on previous studies of its effects in cell lines (5,6). […]
# For immunoblot analysis to detect AT, GAPDH or LC3, cells were lysed in 50 mM Tris-HCl, 150 mM NaCl, 1% NP-40, pH 8.0. Protein levels were quantified using the BCA protein assay (Pierce Biotechnology, Rockford, Ill.). […]
# [3] = test system: ATZ in the HTO/Z cell line; experiment: Pulse labeling and pulse-chase labeling of ATZ in the HTO/Z line; format: cell-based, human
# Description: Radioimmunoprecipitation, SDS-PAGE and Immunoblot Analysis Biosynthetic labeling, pulse-chase labeling, immunoprecipitation and SDS-PAGE/fluorography for AT followed previously published protocols (1). […] For the pulse labeling experiments, HTO/Z cells were incubated for 48 hours in the absence or presence of CBZ in several different concentrations and then subjected to labeling for 30 mins. The cell lysates were then examined by immunoprecipitation and the immunoprecipitates analyzed by SDS-PAGE/fluorography. For the pulse-chase experiments, HTO/Z cells were incubated for 48 hours in the absence of presence of CBZ 30 μM and then pulse labeled for 30 mins. The cells were then washed and incubated in growth medium without tracer for several different time intervals to constitute the chase. CBZ 30 μM was included during the pulse and chase periods. The extracellular fluid and cell lysate samples were subjected to immunoprecipitation and the immunoprecipitates analyzed by SDS-PAGE/fluorography. All fluorograms were subjected to densitometry. The relative densitometric value of T0 is set at 100% and the remainder of the data set expressed as % of this control. The data are shown as mean+/−SE and the mean value at each time point is shown at the bottom of the figure.
compound,measurement,setting,value
"NC(=O)N1c2ccccc2C=Cc2ccccc21 [CBZ, 5H-dibenz [b,f]azepine-5-carboxamide]",collagen 1A level,[1]; not statistically significant,decreased
same,transforming growth factor b level,[1]; not statistically significant,decreased
same,smooth muscle actin level,[1]; reached statistical significance,decreased
same,levels of soluble ATZ,[2],decrease
same,total protein synthesis or secretion (radioactivity in TCA precipitates),[3]; HTO/Z cells,did not show any effects
same,synthesis of ATZ,[3]; pulse labeling 30 mins after 48 hours CBZ,did not affect
same,secretion of ATZ,"[3]; pulse-chase, CBZ 30 μM",could not be attributed to enhanced secretion
same,half-time of disappearance of ATZ from the intracellular compartment,"[3]; pulse-chase, CBZ 30 μM, 200 min in untreated cells",130 min
